Data on 3 compounds can be found in patent US10610539B2, “Cardiac glycoside analogs and their use in methods for inhibition of viral infection” (priority 2013, dated 2020).

In test [1] the test system is Human Foreskin Fibroblasts (HFFs). In kind it is cell-based. To be noted: for cell cycle progression after mimosine arrest: HFFs treated with mimosine 48 hours, washed, treated one day. The procedure: Flow Cytometry: 1×10^5 HFFs from infected-treated or untreated conditions were washed with cold PBS. Cells were suspended in 70% pre-cooled alcohol. Cells were permeabilized in −20° C. for at least 2 hours followed by centrifugation at 5000 rpm for 5 minutes. The supernatants were discarded and cells were washed with cold PBS three times. Cells were re-suspended in 500 ul PBS, propidium iodide was added to a final concentration of 20-50 μg/ml and cells were incubated at room temperature for at least 10 minutes before applying them on flow machine.
The differences between the MTT and trypan blue assay complicated the calculation of antiviral selectivity. […] After 3 day serum starvation cells were released from serum starvation, infected with Towne HCMV and treated with digitoxin or the cardiac glycoside ouabain for 24 hours. HFFs were stained with propidium iodide and subjected to cell cycle analysis by flow cytometry.

Test [2] relates to Towne HCMV. The note with it: previously reported by the inventors; cited from earlier work.
Test [3] relates to Herpes Simplex Virus 1 (HSV1). The note with it: reported; cited from earlier work.
Test [4] relates to breast cancer patients. The note with it: women with breast cancer taking digoxin vs. 34% not taking digitalis; cited from earlier work.

Take `Nc1nc(O)c2ncn(COC(CO)CO)c2n1` [GCV, ganciclovir]: the “cell cycle progression after mimosine arrest” value in test [1] was “allowed the cells to normally progress in the cell cycle”.
Consider `C[C@H]1O[C@@H](O[C@H]2[C@@H](O)C[C@H](O[C@H]3[C@@H](O)C[C@H](O[C@H]4CC[C@@]5(C)[C@H](CC[C@@H]6[C@@H]5C[C@@H](O)[C@]5(C)[C@@H](C7=CC(=O)OC7)CC[C@]65O)C4)O[C@@H]3C)O[C@@H]2C)C[C@H](O)[C@@H]1O` [digoxin], for which, in test [2], the “inhibition of Towne HCMV replication” value is “potent inhibitors of Towne HCMV replication”. Besides, the “inhibition of Herpes Simplex Virus 1 (HSV1)” value in test [3] was “inhibit Herpes Simplex Virus 1 (HSV1) in nanomolar concentrations”. Further, the death rate in test [4] is 6%.
Consider `C[C@@H]1O[C@@H](O[C@H]2C[C@@H](O)[C@]3(CO)[C@H]4[C@H](O)C[C@]5(C)[C@@H](C6=CC(=O)OC6)CC[C@]5(O)[C@@H]4CC[C@]3(O)C2)[C@H](O)[C@H](O)[C@H]1O` [ouabain], for which the cell cycle progression result in test [1] (HFFs released from 3 day serum starvation, infected with Towne HCMV, treated 24 hours) is “arrested HFFs in G1”. Further, the “cell cycle progression after mimosine arrest” value in test [1] was “could not relieve HFFs from cell cycle arrest induced by mimosine”. For the same compound, the “inhibition of Towne HCMV replication” value in test [2] is reported as “potent inhibitors of Towne HCMV replication”. In addition, the “inhibition of Herpes Simplex Virus 1 (HSV1)” value in test [3] was “inhibit Herpes Simplex Virus 1 (HSV1) in nanomolar concentrations”.
